Reference: patent US11976061B2, “Preparation of benzimidazolone derivatives as novel diacylglyceride O-acyltransferase 2 inhibitors” (Merck Sharp & Dohme LLC, priority 2020, dated 2024)

Each compound was assayed against T1, human DGAT2 (hDGAT2) (Homo sapiens, UniProt Q96PD7) (assay: DGAT2 Enzymatic Activity Assay). Settings: membrane prep of Sf-9 cells expressing hDGAT2; 25 μM diolein, 5 μM 13C oleoyl-CoA; 13C18-triolein by LC/MS/MS; read-out: DGAT2 IC50.
T1 construct: made in house; host or cells: Sf-9 insect cells (baculovirus), membrane fraction
T1 sequence (Q96PD7 1-388): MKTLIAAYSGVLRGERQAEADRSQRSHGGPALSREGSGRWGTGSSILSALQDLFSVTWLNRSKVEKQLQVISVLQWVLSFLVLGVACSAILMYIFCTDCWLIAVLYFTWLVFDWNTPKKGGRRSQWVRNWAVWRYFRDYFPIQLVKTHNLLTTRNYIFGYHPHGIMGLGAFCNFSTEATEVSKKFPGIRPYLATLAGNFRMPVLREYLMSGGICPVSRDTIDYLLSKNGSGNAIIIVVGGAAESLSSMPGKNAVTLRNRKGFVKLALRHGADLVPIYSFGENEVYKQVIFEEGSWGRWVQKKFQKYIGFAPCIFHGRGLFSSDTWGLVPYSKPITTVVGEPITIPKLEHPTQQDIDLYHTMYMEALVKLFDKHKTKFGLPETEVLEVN
Format: biochemical
Procedure, shortened: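 Membranes from Sf-9 cells expressing untagged human DGAT2 (8 ng/μL) incubated at rt in 100 mM Tris·Cl pH 7.0, 20 mM MgCl2, 5% ethanol with 25 μM diolein and 5 μM 13C oleoyl-CoA. 13C18-triolein product quantified by LC/MS/MS against 13C21-triolein internal standard; IC50 by 4-parameter fit.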

Row | SMILES | IC50 [µM]
1 | CC(C)n1c(=O)n(-c2cccc(OC(F)F)c2)c2cc(F)c(C(=O)N[C@]3(C)CCS(=O)(=O)C3)cc21 [Example 113, (R)-1-(3-(Difluoromethoxy)phenyl)-6-fluoro-3-isopropyl-N-(3-methyl-1,1-dioxidotetrahydrothiophen-3-1)-2-oxo-2,3-dihydro-1H-benzo[d]imidazole-5-carboxamide] | 0.078
2 | CC(C)n1c(=O)n(-c2cccc(OC(F)F)c2)c2cc(F)c(C(=O)N[C@@]3(C)CCS(=O)(=O)C3)cc21 [Example 114, (S)-1-(3-(Difluoromethoxy)phenyl)-6-fluoro-3-isopropyl-N-(3-methyl-1,1-dioxidotetrahydrothiophen-3-yl)-2-oxo-2,3-dihydro-1H-benzo[d]imidazole-5-carboxamide] | 0.08
3 | CCOc1cc(-n2c(=O)n(C(C)C)c3cc(C(=O)NC4(C)CS(=O)(=O)C4)c(F)cc32)c(F)cn1 [Example 116, 1-(2-ethoxy-5-fluoropyridin-4-yl)-6-fluoro-3-isopropyl-N-(3-methyl-1,1-dioxidothietan-3-yl)-2-oxo-2,3-dihydro-1H-benzo[d]imidazole-5-carboxamide] | 0.093
4 | CCOc1cc(-n2c(=O)n(C(C)C)c3cc(C(=O)NC4(C(F)F)CCS(=O)(=O)CC4)c(F)cc32)c(F)cn1 [Example 117, N-(4-(difluoromethyl)-1,1-dioxidotetrahydro-2H-thiopyran-4-yl)-1-(2-ethoxy-5-fluoropyridin-4-yl)-6-fluoro-3-isopropyl-2-oxo-2,3-dihydro-1H-benzo[d]imidazole-5-carboxamide] | 0.027
5 | CC(C)n1c(=O)n(-c2cc(OC(F)F)ncc2F)c2cc(F)c(C(=O)NC3(C)CS(=O)(=O)C3)cc21 [Example 123, 1-(2-(difluoromethoxy)-5-fluoropyridin-4-yl)-6-fluoro-3-isopropyl-N-(3-methyl-1,1-dioxidothietan-3-yl)-2-oxo-2,3-dihydro-1H-benzo[d]imidazole-5-carboxamide] | 0.073
6 | CC(C)n1c(=O)n(-c2cccc(OC(F)F)c2)c2ccc(C(=O)N[C@]3(C)CCS(=O)(=O)C3)c(F)c21 [Example 125, (R)-1-(3-(Difluoromethoxy)phenyl)-4-fluoro-3-isopropyl-N-(3-methyl-1,1-dioxidotetrahydrothiophen-3-yl)-2-oxo-2,3-dihydro-1H-benzo[d]imidazole-5-carboxamide] | 0.203

Further lines, results first:

Row | IC50 [µM] | SMILES
7 | 0.009 | CC(C)n1c(=O)n(-c2cccc(OC(F)F)c2)c2c(F)cc(C(=O)N[C@@]3(C)CCS(=O)(=O)C3)cc21 [Example 109, 1-[3-(difluoromethoxy)phenyl]-7-fluoro-3-isopropyl-N-[(3S)-3-methyl-1,1-dioxo-thiolan-3-yl]-2-oxo-benzimidazole-5-carboxamide]
8 | 0.007 | CC(C)n1c(=O)n(-c2cccc(OC(F)F)c2)c2c(F)cc(C(=O)N[C@]3(C)CCS(=O)(=O)C3)cc21 [Example 110, 1-[3-(difluoromethoxy)phenyl]-7-fluoro-3-isopropyl-N-[(3R)-3-methyl-1,1-dioxo-thiolan-3-yl]-2-oxo-benzimidazole-5-carboxamide]
9 | 0.068 | CC(C)n1c(=O)n(-c2cccc(OC(F)F)c2)c2c(F)cc(C(=O)NC3(C)CCS(=O)(=O)CC3)cc21 [Example 111, 1-[3-(difluoromethoxy)phenyl]-7-fluoro-3-isopropyl-N-(4-methyl-1,1-dioxo-thian-4-yl)-2-oxo-benzimidazole-5-carboxamide]
10 | 0.0055 | CC(C)n1c(=O)n(-c2cc(OC(F)(F)C(F)F)ccn2)c2cc(F)c(C(=O)NC3(C)CCS(=O)(=O)CC3)cc21 [Example 118, 6-fluoro-3-isopropyl-N-(4-methyl-1,1-dioxidotetrahydro-2H-thiopyran-4-yl)-2-oxo-1-(4-(1,1,2,2-tetrafluoroethoxy)pyridin-2-yl)-2,3-dihydro-1H-benzo[d]imidazole-5-carboxamide]
11 | 0.051 | CC(C)n1c(=O)n(-c2cc(OCC(F)F)ccn2)c2ccc(C(=O)NC3(C)CCS(=O)(=O)CC3)cc21 [Example 119, 1-(4-(2,2-difluoroethoxy)pyridin-2-yl)-3-isopropyl-N-(4-methyl-1,1-dioxidotetrahydro-2H-thiopyran-4-yl)-2-oxo-2,3-dihydro-1H-benzo[d]imidazole-5-carboxamide]
12 | 0.0032 | CC(C)n1c(=O)n(-c2cc(OC(F)(F)C(F)F)ccn2)c2ccc(C(=O)NC3(C)CCS(=O)(=O)CC3)cc21 [Example 120, 3-isopropyl-N-(4-methyl-1,1-dioxidotetrahydro-2H-thiopyran-4-yl)-2-oxo-1-(4-(1,1,2,2-tetrafluoroethoxy)pyridin-2-yl)-2,3-dihydro-1H-benzo[d]imidazole-5-carboxamide]
13 | 0.092 | CC(C)n1c(=O)n(-c2cc(OCC(F)F)ccn2)c2cc(F)c(C(=O)NC3(C)CCS(=O)(=O)CC3)cc21 [Example 121, 1-(4-(2,2-difluoroethoxy)pyridin-2-yl)-6-fluoro-3-isopropyl-N-(4-methyl-1,1-dioxidotetrahydro-2H-thiopyran-4-yl)-2-oxo-2,3-dihydro-1H-benzo[d]imidazole-5-carboxamide]
14 | 0.257 | CC(C)n1c(=O)n(-c2cccc(OC(F)F)c2)c2ccc(C(=O)NC3(C)CCS(=O)(=O)CC3)c(F)c21 [Example 126, 1-(3-(Difluoromethoxy)phenyl)-4-fluoro-3-isopropyl-N-(4-methyl-1,1-dioxidotetrahydro-2H-thiopyran-4-yl)-2-oxo-2,3-dihydro-1H-benzo[d]imidazole-5-carboxamide]

Same assay, conditions: membrane prep of Sf-9 cells expressing hDGAT2; 25 μM diolein, 5 μM 13C oleoyl-CoA; 13C18-triolein by LC/MS/MS; read-out: Human DGAT2 IC50

Row | SMILES | IC50 [µM]
15 | CC(C)n1c(=O)n(-c2cccc(OC(F)F)c2)c2ccc(C(=O)NC3(C)CS(=O)(=O)C3)nc21 [Example 107, 1-(3-(difluoromethoxy)phenyl)-3-isopropyl-N-(3-methyl-1,1-dioxidothietan-3-yl)-2-oxo-2,3-dihydro-1H-imidazo[4,5-b]pyridine-5-carboxamide] | 1.08
16 | CC(C)n1c(=O)n(-c2cccc(OC(F)F)c2)c2c(F)cc(C(=O)NC3(C)CS(=O)(=O)C3)cc21 [Example 108, 1-[3-(difluoromethoxy)phenyl]-7-fluoro-3-isopropyl-N-(3-methyl-1,1-dioxo-thietan-3-yl)-2-oxo-benzimidazole-5-carboxamide] | 0.012
17 | CC(C)n1c(=O)n(-c2cc(OCC(F)F)ncc2F)c2cc(F)c(C(=O)NC3(C)CCS(=O)(=O)CC3)cc21 [Example 115, 1-(2-(2,2-difluoroethoxy)-5-fluoropyridin-4-yl)-6-fluoro-3-isopropyl-N-(4-methyl-1,1-dioxidotetrahydro-2H-thiopyran-4-yl)-2-oxo-2,3-dihydro-1H-benzo[d]imidazole-5-carboxamide] | 0.0041
18 | CC(C)n1c(=O)n(-c2cccc(OC(F)F)c2)c2ccc(C(=O)N[C@@]3(C)CCS(=O)(=O)C3)c(F)c21 [Example 124, (S)-1-(3-(Difluoromethoxy)phenyl)-4-fluoro-3-isopropyl-N-(3-methyl-1,1-dioxidotetrahydrothiophen-3-yl)-2-oxo-2,3-dihydro-1H-benzo[d]imidazole-5-carboxamide] | 0.191
19 | CC(C)n1c(=O)n(-c2cccc(OC(F)F)c2)c2ccc(C(=O)NC3(C)CCS(=O)(=O)CC3)c(C#N)c21 [Example 129, 4-cyano-1-(3-(difluoromethoxy)phenyl)-3-isopropyl-N-(4-methyl-1,1-dioxidotetrahydro-2H-thiopyran-4-yl)-2-oxo-2,3-dihydro-1H-benzo[d]imidazole-5-carboxamide] | 0.248

The next lines start with the values.

Row | IC50 [µM] | SMILES
20 | 0.0738 | CC(C)n1c(=O)n(-c2cccc(OC(F)F)c2)c2cc(F)c(C(=O)NC3(C)CCS(=O)(=O)CC3)cc21 [Example 112, 1-(3-(Difluoromethoxy)phenyl)-6-fluoro-3-isopropyl-N-(4-methyl-1,1-dioxidotetrahydro-2H-thiopyran-4-yl)-2-oxo-2,3-dihydro-1H-benzo[d]imidazole-5-carboxamide]
21 | 0.056 | CC(C)n1c(=O)n(-c2cc(OC(F)F)ncc2F)c2cc(F)c(C(=O)NC3(C)CCS(=O)(=O)CC3)cc21 [Example 122, 1-(2-(difluoromethoxy)-5-fluoropyridin-4-yl)-6-fluoro-3-isopropyl-N-(4-methyl-1,1-dioxidotetrahydro-2H-thiopyran-4-yl)-2-oxo-2,3-dihydro-1H-benzo[d]imidazole-5-carboxamide]
22 | 0.112 | CC(C)n1c(=O)n(-c2cccc(OC(F)F)c2)c2cc(Cl)c(C(=O)NC3(C)CCS(=O)(=O)CC3)cc21 [Example 127]
23 | 1.38 | CC(C)n1c(=O)n(-c2cccc(OC(F)F)c2)c2ccc(C(=O)NC3(C)CCS(=O)(=O)CC3)c(Cl)c21 [Example 128, 4-chloro-1-(3-(difluoromethoxy)phenyl)-3-isopropyl-N-(4-methyl-1,1-dioxidotetrahydro-2H-thiopyran-4-yl)-2-oxo-2,3-dihydro-1H-benzo[d]imidazole-5-carboxamide]
